Source: ChEMBL document CHEMBL1201862, “PubChem BioAssay data set” (2004)
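A five-concentration, 48-hour dose response in 96-well plates underlies each endpoint, interpolated linearly between surrounding concentrations. GI50 marks 50% less growth.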 The source made the active and inactive calls. No stated cut-off is given here; in the data, active = GI50 up to about 1.1 µM and inactive = higher.

Tests used:
Experiment in all cases: NCI anticancer screen, dose series, 48 h
A549 = tested on: A549
EKVX = tested on: EKVX
HL-60 = tested on: HL-60
HOP-92 = tested on: HOP-92
HT-29 = tested on: HT-29
KM12 = tested on: KM12
LOX IMVI = tested on: LOX IMVI
MDA-N = tested on: MDA-N
NCI-H23 = tested on: NCI-H23
NCI-H522 = tested on: NCI-H522
NCI/ADR-RES = tested on: NCI/ADR-RES
OVCAR-3 = tested on: OVCAR-3
OVCAR-4 = tested on: OVCAR-4
PC-3 = tested on: PC-3
RPMI-8226 = tested on: RPMI-8226
SK-MEL-28 = tested on: SK-MEL-28
SK-OV-3 = tested on: SK-OV-3
SNB-75 = tested on: SNB-75
SR = tested on: SR
UACC-257 = tested on: UACC-257

Measured: GI50

CCOC(=O)n1cncc1CC(NC(=O)Cc1c(C(=O)C=C(C)C)[nH]c2ccccc12)C(=O)OC (stereo not given)
inactive: A549 19.2 µM | EKVX 15.5 µM | HL-60 18 µM | HOP-92 12 µM | HT-29 22.3 µM | KM12 19.3 µM | LOX IMVI 15.5 µM | MDA-N 23 µM | NCI-H23 25.4 µM | NCI-H522 3.56 µM | NCI/ADR-RES 33.4 µM | OVCAR-3 17.7 µM | OVCAR-4 18.5 µM | PC-3 17 µM | RPMI-8226 32.5 µM | SK-MEL-28 16 µM | SK-OV-3 17.5 µM | SNB-75 22.9 µM | SR 3.56 µM | UACC-257 13.3 µM

CC12c3c4ccc(C=O)c3Oc3ccc(C=O)c(c31)Oc1ccc(C=O)c(c12)O4
inactive: A549 > 25 µM | EKVX > 25 µM | HL-60 > 25 µM | HOP-92 > 25 µM | HT-29 > 25 µM | KM12 > 25 µM | LOX IMVI > 25 µM | MDA-N > 25 µM | NCI-H23 > 25 µM | NCI-H522 > 25 µM | NCI/ADR-RES > 25 µM | OVCAR-3 > 25 µM | OVCAR-4 > 25 µM | PC-3 > 25 µM | RPMI-8226 > 25 µM | SK-MEL-28 > 25 µM | SK-OV-3 > 25 µM | SNB-75 > 25 µM | SR 7.11 µM | UACC-257 > 25 µM

CN(CCc1ccc(Cl)c(Cl)c1)CCN(C)CCN1CCCC1
inactive: A549 10.5 µM | EKVX 16.6 µM | HL-60 13.4 µM | HOP-92 3.66 µM | HT-29 2.38 µM | KM12 10.9 µM | LOX IMVI 4.76 µM | MDA-N 1.79 µM | NCI-H23 14.2 µM | NCI-H522 6.64 µM | NCI/ADR-RES 25.4 µM | OVCAR-3 23.3 µM | OVCAR-4 28.5 µM | PC-3 14.5 µM | RPMI-8226 2.86 µM | SK-MEL-28 1.64 µM | SK-OV-3 21.2 µM | SNB-75 14.9 µM | SR 4.84 µM | UACC-257 2.36 µM

CCOC(=O)CC1C(O)C(=O)N(C)C1c1ccccc1 (stereo not given)
inactive: A549 > 100 µM | EKVX > 100 µM | HL-60 > 100 µM | HOP-92 > 100 µM | HT-29 > 100 µM | KM12 > 100 µM | LOX IMVI > 100 µM | MDA-N > 100 µM | NCI-H23 > 100 µM | NCI-H522 > 100 µM | NCI/ADR-RES > 100 µM | OVCAR-3 > 100 µM | OVCAR-4 > 100 µM | PC-3 > 100 µM | RPMI-8226 > 100 µM | SK-MEL-28 > 100 µM | SK-OV-3 > 100 µM | SNB-75 > 100 µM | SR > 100 µM | UACC-257 > 100 µM

Clc1cccc(Cl)c1C(Nc1nncs1)Nc1nncs1
inactive: A549 48.9 µM | EKVX 43.9 µM | HL-60 17.3 µM | HOP-92 > 100 µM | HT-29 14.1 µM | KM12 27.7 µM | LOX IMVI 21.8 µM | MDA-N 9.27 µM | NCI-H23 40.2 µM | NCI-H522 22.3 µM | NCI/ADR-RES 50 µM | OVCAR-3 46.7 µM | OVCAR-4 59.4 µM | PC-3 9.35 µM | RPMI-8226 46 µM | SK-MEL-28 21.8 µM | SK-OV-3 32 µM | SNB-75 > 100 µM | SR 4.84 µM | UACC-257 18.2 µM

CN1CN(c2ccccc2)C2(CCN(CCCC3(c4cccs4)OCCO3)CC2)C1=O
inactive: A549 > 100 µM | EKVX > 100 µM | HL-60 > 100 µM | HOP-92 28.7 µM | HT-29 36.1 µM | KM12 > 100 µM | LOX IMVI > 100 µM | MDA-N > 100 µM | NCI-H23 77.6 µM | NCI-H522 > 100 µM | NCI/ADR-RES > 100 µM | OVCAR-3 > 100 µM | OVCAR-4 > 100 µM | PC-3 > 100 µM | RPMI-8226 > 100 µM | SK-MEL-28 > 100 µM | SK-OV-3 > 100 µM | SNB-75 88.7 µM | SR > 100 µM | UACC-257 > 100 µM

CN/N=C(/CCN1CCCC1)CC(c1ccccc1)c1c(O)c2ccccc2oc1=O (stereo not given)
active: HOP-92 0.804 µM
inactive: A549 > 100 µM | EKVX > 100 µM | HL-60 61.5 µM | HT-29 > 100 µM | KM12 > 100 µM | LOX IMVI > 100 µM | MDA-N > 100 µM | NCI-H23 > 96.4 µM | NCI-H522 > 100 µM | NCI/ADR-RES > 100 µM | OVCAR-3 > 100 µM | OVCAR-4 > 100 µM | PC-3 > 100 µM | RPMI-8226 25.5 µM | SK-MEL-28 > 100 µM | SK-OV-3 > 100 µM | SNB-75 19.4 µM | SR > 94.6 µM | UACC-257 > 100 µM

Cc1ccc(NC(=O)/C(Cc2cc(=O)oc3cc(O)ccc23)=N\NC(=O)C[N+](C)(C)C)cc1C
inactive: A549 > 100 µM | EKVX > 100 µM | HL-60 > 100 µM | HOP-92 > 100 µM | HT-29 > 100 µM | KM12 > 100 µM | LOX IMVI > 100 µM | MDA-N > 100 µM | NCI-H23 > 100 µM | NCI-H522 > 100 µM | NCI/ADR-RES > 100 µM | OVCAR-3 > 100 µM | OVCAR-4 > 100 µM | PC-3 > 100 µM | RPMI-8226 > 100 µM | SK-MEL-28 > 100 µM | SK-OV-3 > 100 µM | SNB-75 > 100 µM | SR > 100 µM | UACC-257 > 100 µM

CC(C)=CCNc1nc(Cl)nc2[nH]cnc12
inactive: A549 28.8 µM | EKVX 15.7 µM | HL-60 > 100 µM | HOP-92 35 µM | HT-29 > 100 µM | KM12 > 100 µM | LOX IMVI > 100 µM | MDA-N > 100 µM | NCI-H23 56.6 µM | NCI-H522 > 100 µM | NCI/ADR-RES 35.7 µM | OVCAR-3 > 100 µM | OVCAR-4 54.1 µM | PC-3 > 100 µM | RPMI-8226 > 100 µM | SK-MEL-28 > 100 µM | SK-OV-3 16.4 µM | SNB-75 > 100 µM | SR 37 µM | UACC-257 27.1 µM

CN1C2CCC1CC(CCOC(c1ccc(F)cc1)c1ccc(F)cc1)C2 (stereo not given)
inactive: A549 19.4 µM | EKVX 13.9 µM | HL-60 16.1 µM | HOP-92 15.7 µM | HT-29 6.73 µM | KM12 14.8 µM | LOX IMVI 16.6 µM | MDA-N 14.5 µM | NCI-H23 19.5 µM | NCI-H522 17.1 µM | NCI/ADR-RES 17.5 µM | OVCAR-3 16 µM | OVCAR-4 17.4 µM | PC-3 15.5 µM | RPMI-8226 18.6 µM | SK-MEL-28 16 µM | SK-OV-3 16.6 µM | SNB-75 14.3 µM | SR 14.8 µM | UACC-257 17.1 µM

C=CC(Br)(CBr)CCC(Br)C(C)C (stereo not given)
inactive: A549 14.1 µM | EKVX 18.3 µM | HOP-92 10.7 µM | HT-29 2.79 µM | KM12 2.18 µM | LOX IMVI 1.53 µM | MDA-N 2.07 µM | NCI-H23 6.82 µM | NCI-H522 1.49 µM | NCI/ADR-RES 7.85 µM | OVCAR-3 4.5 µM | OVCAR-4 4.9 µM | PC-3 7 µM | RPMI-8226 1.25 µM | SK-MEL-28 3.49 µM | SK-OV-3 16.6 µM | SNB-75 1.95 µM | SR 1.62 µM | UACC-257 8.18 µM
active: HL-60 0.769 µM

Brc1c2c(c(Br)c3nsnc13)N=S=N2
inactive: A549 78.5 µM | EKVX 27.2 µM | HL-60 3.83 µM | HOP-92 17.4 µM | HT-29 34.4 µM | KM12 46.3 µM | LOX IMVI 3.84 µM | MDA-N 26.5 µM | NCI-H23 23.3 µM | NCI-H522 23.4 µM | NCI/ADR-RES 26.7 µM | OVCAR-3 20.9 µM | OVCAR-4 23.1 µM | PC-3 32.7 µM | RPMI-8226 22 µM | SK-MEL-28 37.5 µM | SK-OV-3 46.2 µM | SNB-75 25.1 µM | SR 4.82 µM | UACC-257 42.4 µM
